The target in one data set is PI3Kγ (Homo sapiens, UniProt P48736). Kind of data set: PI3Kγ inhibitory activity (PI3-kinase HTRF assay, inhibition ratio). Type of data set: biochemical. As to conditions: 0.5 h, compound at 10 μmol/L; read-out: PI3Kg Inhibition Ratio % (10 μM). Here is the method: For each compound synthesized in the above Examples, PI3Kγ inhibitory activity was measured.
The PI3Kγ inhibitory activity of a compound was evaluated using PI3-kinase HTRF™ assay (Millipore) according to the following procedure:
To each well of a testing plate, 5 μL of a compound solution containing 10% DMSO (40 μmol/L as the concentration of the compound), 5 μL of a substrate solution (40 μmol/L phosphatidylinositol (4,5)-bisphosphate, 20 mmol/L MgCl2, 10 mmol/L DTT), and 5 μL of an enzyme solution (80 μg/mL PI-3 kinase y, 10 mmol/L MgCl2, 5 mmol/L DTT) were added, and then allowed to stand for 10 minutes.
Then, 5 μL of a reaction solution (40 μmol/L ATP, 10 mmol/L MgCl2, 5 mmol/L DTT) was added thereto. After reacting for 30 minutes at room temperature, 5 μL of a solution containing EDTA and biotinylated phosphatidylinositol (3,4,5)-triphosphate was added to quench the reaction.
5 μL of a detection reagent containing a europium-labeled anti-GST antibody, the GST-tagged PH domain, and allophycocyanin-labeled streptavidin was added thereto. After 18 hours, HTRF (excitation wavelength: 330 nm, measured wavelengths: 620 nm and 665 nm) was measured.
HTRF ratio was defined as the value obtained by dividing the amount of fluorescence obtained at the measured wavelength 665 nm by the amount of fluorescence obtained at 620 nm. The HTRF ratio in the absence of a compound was defined as 100% activity and the HTRF ratio in the absence of PI-3 kinase y was defined as 0% activity to calculate an inhibition ratio, which was defined as the PI3Kγ inhibitory activity of a compound at 10 μmol/L.
(In general: TR-FRET usually uses a lanthanide donor and a delayed reading to cut background.)

For the next data set, the target named is T1, CYP3A4 (Homo sapiens, UniProt P08684).
T1 construct: host or cells: E. coli
T1 sequence (P08684 whole entry): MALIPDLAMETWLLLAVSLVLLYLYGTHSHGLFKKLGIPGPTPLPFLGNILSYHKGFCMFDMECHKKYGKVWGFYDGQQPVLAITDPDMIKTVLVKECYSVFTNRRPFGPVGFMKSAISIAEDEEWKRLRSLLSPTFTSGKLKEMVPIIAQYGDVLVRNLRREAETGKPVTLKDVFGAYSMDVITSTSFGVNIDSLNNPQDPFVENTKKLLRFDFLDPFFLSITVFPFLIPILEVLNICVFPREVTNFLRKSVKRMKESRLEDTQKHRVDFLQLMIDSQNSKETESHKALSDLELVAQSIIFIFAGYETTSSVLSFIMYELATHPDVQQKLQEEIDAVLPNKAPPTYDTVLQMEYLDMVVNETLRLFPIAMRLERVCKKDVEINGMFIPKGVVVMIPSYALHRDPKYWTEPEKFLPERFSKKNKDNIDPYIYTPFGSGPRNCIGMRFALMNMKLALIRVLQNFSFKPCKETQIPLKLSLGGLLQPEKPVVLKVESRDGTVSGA
In words: CYP3A4 fluorescence MBI test. Type of data set: in vitro ADME. As to conditions: difference in IC50 with 0 or 30 minutes pre-reaction; CYP3A4 expressed in E. coli, substrate 7-BFC. The procedure: The CYP3A4 fluorescence MBI test is a test to examine the enhancement of CYP3A4 inhibition of a compound by a metabolic reaction. The test was performed using as an index, a reaction to produce a metabolite 7-hydroxytrifluoromethylcoumarin (HFC) which emits fluorescence, in which CYP3A4 expressed in E. coli was used as an enzyme and 7-benzyloxytrifluoromethylcoumarin (7-BFC) is debenzylated by CYP3A4 enzyme.
The reaction conditions are as follows: substrate: 5.6 μmol/L 7-BFC; pre-reaction time; 0 or 30 minutes; reaction time: 15 minutes; reaction temperature: 25° C. (room temperature); content of CYP3A4 (an enzyme expressed in E. coli): […] at the time of a pre-reaction and […] (when diluted 10 times) at the time of a reaction; the concentrations of a test drug: 0.625, 1.25, 2.5, 5, 10, and 20 μmol/L (6 points).
In a 96-well plate, an enzyme solution and a test drug solution were added as a pre-reaction solution into K-Pi buffer solution (pH 7.4) in the aforementioned ratio. A portion thereof was transferred to another 96-well plate to be diluted ten times with a substrate and a K-Pi buffer solution. A coenzyme, NADPH, was then added to start a reaction, which is the index (this is without a pre-reaction). After reacting for a predetermined time, 4:1 of acetonitrile: 0.5 mol/L Tris (trishydroxyaminomethane) was added to quench the reaction. To the remaining pre-reaction solution, NADPH was added to start a pre-reaction (this is with a pre-reaction). After pre-reacting for a predetermined time, a portion thereof was transferred to another plate to be diluted ten times with a substrate and K-Pi buffer solution, and thereby the index reaction is started. After reacting for a predetermined time, 4:1 of acetonitrile:0.5 mol/L Tris (trishydroxyaminomethane) was added to quench the reaction. For each plate in which the index reaction was carried out, the fluorescence value of a metabolite 7-HFC was measured with a fluorescent plate reader (Ex=420 nm, Em=535 nm).
The case wherein only DMSO (a solvent which dissolved a drug) was added to a reaction system was defined as a control (100%). When a test drug solution was added, the remaining activity (%) at each concentration was calculated, and then IC50 was calculated with a concentration and an inhibition ratio by an inverse estimation using a logistic model. When the difference in IC50 value is 5 μmol/L or more, the compound is shown as (+). When 3 μmol/L or less, the compound is shown as (−).

The nature of data set [1]: Metabolic stability test (pooled human liver microsome). Type of data set: in vitro ADME. The following applies: percentage of test compound remained after 30 minutes, pooled human liver microsome 0.5 mg protein/mL, 1 mmol/L NADPH, 37° C., compound 0.5 μM. Here is the method: After a subject compound was reacted for a certain time using a pooled human liver microsome commercially available, a reacted sample and an unreacted sample are compared to calculate a survival ratio, and then the degree of metabolism in the liver was evaluated.
0.2 mL of a buffer solution (50 mmol/L of Tris-HCl in pH 7.4, 150 mmol/L of potassium chloride, and 10 mmol/L of magnesium chloride) containing a human liver microsome of 0.5 mg protein/mL was reacted in the presence of 1 mmol/L NADPH at 37° C. for 0 or 30 minutes (oxidative reaction). After reacting, 50 μL of the reaction solution was added to 100 μL of a solution of methanol/acetonitrile (1/1 (v/v)), mixed, and then centrifuged at 3000 rpm for 15 minutes. The test compound in the supernatant was quantitated with LC/MS/MS. The amount of the compound at a reaction time of 0 minute was defined as 100% and, based on that, the percentage of the test compound remained after reacting for 30 minutes was calculated.
For orientation: Liver microsomes are vesicles of endoplasmic reticulum, rich in cytochrome P450 enzymes.

From patent US20120071475A1, “UREA DERIVATIVES HAVING PI3K-INHIBITING ACTIVITY” (SHIONOGI & CO., LTD., priority 2009, published 2012) come the findings set out here.

Sequence of PI3Kγ (P48736 whole entry, species assumed): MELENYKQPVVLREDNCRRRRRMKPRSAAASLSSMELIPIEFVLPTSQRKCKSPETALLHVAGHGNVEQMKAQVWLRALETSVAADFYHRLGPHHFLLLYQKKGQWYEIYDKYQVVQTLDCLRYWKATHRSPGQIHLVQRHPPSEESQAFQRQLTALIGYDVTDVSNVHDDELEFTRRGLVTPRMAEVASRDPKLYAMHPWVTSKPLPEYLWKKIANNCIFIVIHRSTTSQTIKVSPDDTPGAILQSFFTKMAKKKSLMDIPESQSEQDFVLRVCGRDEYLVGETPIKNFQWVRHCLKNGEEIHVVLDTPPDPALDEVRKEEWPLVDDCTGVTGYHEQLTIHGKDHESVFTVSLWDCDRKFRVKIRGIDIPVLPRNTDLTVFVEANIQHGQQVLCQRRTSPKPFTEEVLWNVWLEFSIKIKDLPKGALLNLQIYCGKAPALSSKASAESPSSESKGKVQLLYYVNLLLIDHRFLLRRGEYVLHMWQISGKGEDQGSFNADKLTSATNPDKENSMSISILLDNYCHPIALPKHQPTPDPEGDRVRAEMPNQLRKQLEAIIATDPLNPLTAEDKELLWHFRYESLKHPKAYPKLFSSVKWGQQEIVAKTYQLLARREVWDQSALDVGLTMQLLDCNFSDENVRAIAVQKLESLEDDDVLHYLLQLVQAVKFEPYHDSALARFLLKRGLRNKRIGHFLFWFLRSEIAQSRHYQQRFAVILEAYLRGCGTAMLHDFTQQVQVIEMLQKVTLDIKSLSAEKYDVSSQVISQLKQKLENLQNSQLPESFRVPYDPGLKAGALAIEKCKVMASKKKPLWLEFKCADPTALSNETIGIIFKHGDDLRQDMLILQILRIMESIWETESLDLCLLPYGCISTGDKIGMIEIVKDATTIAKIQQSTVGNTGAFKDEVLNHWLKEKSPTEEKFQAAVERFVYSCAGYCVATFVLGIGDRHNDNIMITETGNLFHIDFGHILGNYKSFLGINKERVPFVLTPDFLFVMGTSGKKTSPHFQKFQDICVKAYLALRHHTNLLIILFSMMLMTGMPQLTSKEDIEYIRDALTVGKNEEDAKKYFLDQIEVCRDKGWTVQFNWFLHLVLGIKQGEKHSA

For `COc1cc(N2CCc3nc(NC(=O)Nc4ccccc4C(=O)NC4(C#N)CC4)sc3C2)nc(OC)n1` [Compound I-20], at PI3Kγ, the inhibition at 10 µM is at least 95%. In addition, the MBI result at CYP3A4 is “(−) (When 3 μmol/L or less, the compound is shown as (−))”.

For `COc1cc(N2CCc3nc(NC(=O)Nc4ccccc4OC(F)(F)F)sc3C2)nc(OC)n1` [Compound I-34], the MBI entry at CYP3A4 is reported as “(−) (When 3 μmol/L or less, the compound is shown as (−))”.

`Cc1cc(N2CCc3nc(NC(=O)Nc4cn(C)nc4C(=O)NC(C)C)sc3C2)nc(C#N)n1` [Compound I-186]: the inhibition at 10 µM on PI3Kγ amounted to 91%. Moreover, the MBI result at CYP3A4 is recorded as “(−) (When 3 μmol/L or less, the compound is shown as (−))”.

Consider `COc1cc(N2CCc3nc(NC(=O)Nc4ccccc4C(N)=O)sc3C2)nc(OC)n1` [Compound I-35], for which the inhibition at 10 µM on PI3Kγ is at least 95%. For the same molecule, the “hLMS_ox(at 0.5 μM) %” value in data set [1] came to 101%. For the same molecule, the MBI result at CYP3A4 is “(−) (When 3 μmol/L or less, the compound is shown as (−))”.

As to `Cc1cc(N2CCc3nc(NC(=O)Nc4ccccc4C(=O)N[C@@H](C)CO)sc3C2)nc(Cl)n1` [Compound I-168], at PI3Kγ, the inhibition at 10 µM worked out at 89%. Moreover, in data set [1], the “hLMS_ox(at 0.5 μM) %” value amounted to 104%. Moreover, the MBI result on CYP3A4 was “(−) (When 3 μmol/L or less, the compound is shown as (−))”.

Turning to `COc1cc(N2CCc3nc(NC(=O)Nc4cccnc4C(=O)N(C)C(C)C)sc3C2)nc(OC)n1` [Compound I-24], the inhibition at 10 µM at PI3Kγ is at least 95%. In addition, the MBI entry at CYP3A4 was “(−) (When 3 μmol/L or less, the compound is shown as (−))”.

`COc1cc(N2CCc3nc(NC(=O)Nc4cc(F)ccc4C(=O)NC(C)C)sc3C2)nc(OC)n1` [Compound I-74]: in data set [1], the “hLMS_ox(at 0.5 μM) %” value amounted to 83.3%. Also, the MBI result on CYP3A4 is on record as “(−) (When 3 μmol/L or less, the compound is shown as (−))”.

`COc1cc(N2CCc3nc(NC(=O)Nc4ccccc4OCc4ccccc4)sc3C2)nc(OC)n1` [Compound I-39]: the MBI entry at CYP3A4 is “(−) (When 3 μmol/L or less, the compound is shown as (−))”.

As for `CNC(=O)c1ccccc1NC(=O)Nc1nc2c(s1)CN(c1cc(OC)nc(OC)n1)CC2` [Compound I-56], the “hLMS_ox(at 0.5 μM) %” value in data set [1] is recorded as 95.5%. Also, at CYP3A4, the MBI result is listed as “(−) (When 3 μmol/L or less, the compound is shown as (−))”.

As to `COc1cncc(C2(F)CCc3nc(NC(=O)Nc4ccccc4C(=O)NC(C)C)sc3C2)c1` (stereo not drawn) [Compound I-79], on CYP3A4, the MBI entry was “(−) (When 3 μmol/L or less, the compound is shown as (−))”.

In the case of `COc1cc(N2CCc3nc(NC(=O)Nc4cccc(F)c4C(=O)NC(C)C)sc3C2)nc(OC)n1` [Compound I-75], the MBI result on CYP3A4 is “(−) (When 3 μmol/L or less, the compound is shown as (−))”.

Turning to `COc1cc(N2CCc3nc(NC(=O)Nc4ccccc4C(C)(C)C)sc3C2)nc(OC)n1` [Compound I-40], on CYP3A4, the MBI result is recorded as “(−) (When 3 μmol/L or less, the compound is shown as (−))”.

Take `COc1cc(N2CCc3nc(NC(=O)Nc4cccnc4C(=O)NC(C)(C)C)sc3C2)nc(OC)n1` [Compound I-22]: the inhibition at 10 µM on PI3Kγ was at least 95%. Besides, at CYP3A4, the MBI entry is reported as “(−) (When 3 μmol/L or less, the compound is shown as (−))”.

On to `COc1cc(OC)nc(N2CCc3nc(NC(=O)Nc4ccccc4C(=O)NC(C)C)sc3C2)c1` [Compound I-62], for which the MBI entry on CYP3A4 was “(−) (When 3 μmol/L or less, the compound is shown as (−))”.

In the case of `COc1cc(N2CCc3nc(NC(=O)Nc4ccccc4C(=O)NCCC(C)C)sc3C2)nc(OC)n1` [Compound I-59], the MBI result on CYP3A4 was “(−) (When 3 μmol/L or less, the compound is shown as (−))”.

Take `COc1cc(N2CCc3nc(NC(=O)Nc4cnccc4C(=O)NC(C)(C)C)sc3C2)nc(OC)n1` [Compound I-23]: the inhibition at 10 µM on PI3Kγ was at least 95%. In addition, the MBI entry on CYP3A4 is given as “(−) (When 3 μmol/L or less, the compound is shown as (−))”.

For the molecule `CS(=O)(=O)c1cccc(N2CCc3nc(NC(=O)Nc4ccccc4C(=O)NCC#N)sc3C2)c1` [Compound I-200], the inhibition at 10 µM on PI3Kγ is at least 95%. Moreover, on CYP3A4, the MBI entry was “(−) (When 3 μmol/L or less, the compound is shown as (−))”.

On to `COc1cc(N2CCc3nc(NC(=O)Nc4ccccc4C(F)(F)F)sc3C2)nc(OC)n1` [Compound I-33], for which the MBI result at CYP3A4 is listed as “(−) (When 3 μmol/L or less, the compound is shown as (−))”.

As to `Cc1cc(N2CCc3nc(NC(=O)Nc4ccccc4C(=O)N[C@H](C)CO)sc3C2)nc(C#N)n1` [Compound I-185], at PI3Kγ, the inhibition at 10 µM is at least 95%. Also, the “hLMS_ox(at 0.5 μM) %” value in data set [1] was 87.6%. Further, the MBI entry at CYP3A4 is recorded as “(−) (When 3 μmol/L or less, the compound is shown as (−))”.

Turning to `Cc1cc(N2CCc3nc(NC(=O)Nc4ccccc4C(=O)N[C@@H](C)CO)sc3C2)nc(C#N)n1` [Compound I-180], the inhibition at 10 µM on PI3Kγ amounted to 89%. Also, in data set [1], the “hLMS_ox(at 0.5 μM) %” value came out at 92.6%. Besides, the MBI entry at CYP3A4 is recorded as “(−) (When 3 μmol/L or less, the compound is shown as (−))”.

Turning to `COc1cncc(N2CCc3nc(NC(=O)Nc4ccccc4C(=O)NC(C)C)sc3C2)c1` [Compound I-49], the MBI result on CYP3A4 was “(−) (When 3 μmol/L or less, the compound is shown as (−))”.

On to `Cc1cc(N2CCc3nc(NC(=O)Nc4ccccc4C(=O)NC(C)C)sc3C2)nc(Cl)n1` [Compound I-163], for which, at PI3Kγ, the inhibition at 10 µM was found to be 83%. For the same molecule, in data set [1], the “hLMS_ox(at 0.5 μM) %” value was 90.5%. The MBI entry on CYP3A4 is “(−) (When 3 μmol/L or less, the compound is shown as (−))”.

For the molecule `CC(C)NC(=O)c1ccccc1NC(=O)Nc1nc2c(s1)CN(c1ccnc(Cl)n1)CC2` [Compound I-98], the inhibition at 10 µM on PI3Kγ is at least 95%. For the same molecule, the MBI result on CYP3A4 was “(−) (When 3 μmol/L or less, the compound is shown as (−))”.

Consider `COc1cc(N2CCc3nc(NC(=O)Nc4ccccc4C(=O)CC(C)C)sc3C2)nc(OC)n1` [Compound I-65], for which the inhibition at 10 µM on PI3Kγ is at least 95%. Also, on CYP3A4, the MBI entry is “(−) (When 3 μmol/L or less, the compound is shown as (−))”.

In the case of `COc1cc(N2CCc3nc(NC(=O)Nc4ccccc4C(=O)NCC(C)C)sc3C2)nc(OC)n1` [Compound I-58], the MBI result on CYP3A4 was “(−) (When 3 μmol/L or less, the compound is shown as (−))”.
